Publication PMC3962778 (Journal of medicinal chemistry, 2014)
“And” between values parts separate entries of the source, which are not always exact repeats. Equal entries are not always repeated. Where two headings read alike, the source gives them in different places.

Key:
[1] = system: T. brucei brucei (strain BF427); assay: In vitro parasite growth arrest assay; assay type: cell-based, Trypanosoma brucei brucei; settings: for EC50: Trypanosoma brucei
[2] = system: T. brucei rhodesiense STIB 900 strain; assay: Anti-parasite efficacy studies in mice; settings: for Cured / Day of euthanasia: mice, oral, 5 days
[3] = 5 mg/kg, 2 doses per day, Exp 1 and Exp 2
[4] = 20 mg/kg, 1 dose per day, Exp 2
[5] = 20 mg/kg, 2 doses per day, Exp 1
[6] = 50 mg/kg, 1 dose per day, Exp 1

Q: Which results are given for `N=C(N)c1ccc(OCCCCCOc2ccc(C(=N)N)cc2)cc1` [Pentamidine, reference compound]?
A: EC50 ([1]; read-out: EC50, concentration of compound required to inhibit growth by 50%): 1.7 nM; EC50 ([1]; read-out: EC50 against T. brucei in vitro): 1.2 nM

Q: `Nc1ccc(Cl)c(-c2nc3ncccc3o2)c1` [Compound 36] was tested. Which “inhibition of T. brucei growth in vitro” value ([1]; tested up to 20 μM) did it give?
A: Its value is “no inhibition”.

Q: Which “lowest oral dose at which infected mice were cured (dosed orally down to)” value ([2]; T. brucei infected mice) does the source give for `O=C(Nc1ccc(F)c(-c2nc3cc(-c4ccccc4)cnc3[nH]2)c1)N1CCCC1` [Compound 64] here?
A: Its value is 2.5 mg/kg.

Q: And the Cured ([2]; 1 mg/kg, 2 doses per day, Exp 2)?
A: The Cured was 0 of 5 and 0/5.

Q: What about the Cured ([2]; 2.5 mg/kg, 2 doses per day, Exp 2) of the same compound?
A: Its Cured is 2 of 5 and 2/5.

Q: What about the Cured ([2]; 5 mg/kg, 1 dose per day, Exp 2) of the same compound?
A: The Cured was 2 of 5 and 2/5.

Q: What about the Cured [2, 3] of the same compound?
A: The Cured was “all mice were cured and 5/5”.

Q: What about the Day of euthanasia [2, 3] of the same compound?
A: Its Day of euthanasia is 60.

Q: What about the Cured [2, 4] of the same compound?
A: The Cured was “Cures in all mice and 5/5”.

Q: What about the Day of euthanasia [2, 4] of the same compound?
A: Its Day of euthanasia is 60.

Q: And the Cured [2, 5]?
A: Its Cured is “Cures in all mice and 5/5”.

Q: What about the Day of euthanasia [2, 5] of the same compound?
A: The Day of euthanasia was 60.

Q: What about the Cured [2, 6] of the same compound?
A: The Cured was “Cures in all mice and 5/5”.

Q: And the Day of euthanasia [2, 6]?
A: Its Day of euthanasia is 60.

Q: And the Cured ([2]; 50 mg/kg, 2 doses per day, Exp 1)?
A: The Cured was “Cures in all mice and 5/5”.

Q: And the Day of euthanasia ([2]; 50 mg/kg, 2 doses per day, Exp 1, day 60 = cured)?
A: The Day of euthanasia was 60.

Q: And the “extent of growth inhibition of T. brucei in vitro” value [1]?
A: Its value is “complete growth inhibition”.
